Experiments:
[1] = biological target: T1, Alpha-2C adrenergic receptor (Homo sapiens, UniProt P18825); assay: DRUGMATRIX: Adrenergic Alpha-2C radioligand binding (ligand: [3H] MK-912); assay type: cell membranes, Sf9, Membrane
T1 sequence (P18825 whole entry): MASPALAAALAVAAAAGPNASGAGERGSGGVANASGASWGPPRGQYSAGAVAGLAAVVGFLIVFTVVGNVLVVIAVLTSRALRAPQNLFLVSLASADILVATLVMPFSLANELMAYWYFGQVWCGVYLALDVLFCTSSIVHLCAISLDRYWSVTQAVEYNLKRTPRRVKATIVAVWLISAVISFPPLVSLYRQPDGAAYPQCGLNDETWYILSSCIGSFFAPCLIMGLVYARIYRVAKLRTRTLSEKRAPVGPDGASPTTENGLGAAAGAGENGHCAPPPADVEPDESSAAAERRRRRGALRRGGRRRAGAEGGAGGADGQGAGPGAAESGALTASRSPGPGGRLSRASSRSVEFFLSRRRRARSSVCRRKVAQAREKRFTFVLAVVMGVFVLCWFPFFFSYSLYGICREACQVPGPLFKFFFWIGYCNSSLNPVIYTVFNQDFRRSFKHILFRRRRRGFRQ

[2] = biological target: Beta-2 adrenergic receptor (Homo sapiens, UniProt P07550); assay: DRUGMATRIX: Adrenergic beta2 radioligand binding (ligand: [3H] CGP-12177); assay type: cell membranes, Membrane; conditions: cho; Not Active = under 50% inhibition at 10 µM
[3] = biological target: 5-hydroxytryptamine receptor 6 (Homo sapiens, UniProt P50406); assay type: cell membranes, HeLa, Membrane; note: in other assays of this panel Not Active means under 50% inhibition at 10 µM
[4] = biological target: T2, C-C chemokine receptor type 4 (Homo sapiens, UniProt P51679); assay type: cell membranes, Chem-1, Membrane; conditions: chem-1; note: in other assays of this panel Not Active means under 50% inhibition at 10 µM
T2 sequence (P51679 whole entry): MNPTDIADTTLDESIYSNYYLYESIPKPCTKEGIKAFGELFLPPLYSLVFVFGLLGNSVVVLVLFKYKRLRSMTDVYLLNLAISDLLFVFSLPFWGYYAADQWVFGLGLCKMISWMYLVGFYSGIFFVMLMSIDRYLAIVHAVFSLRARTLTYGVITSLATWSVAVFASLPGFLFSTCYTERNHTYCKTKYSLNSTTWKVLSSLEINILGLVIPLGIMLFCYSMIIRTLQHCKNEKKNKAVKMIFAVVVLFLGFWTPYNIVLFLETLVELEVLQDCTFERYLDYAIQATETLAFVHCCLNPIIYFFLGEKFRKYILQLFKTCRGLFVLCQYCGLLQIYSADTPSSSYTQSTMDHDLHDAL

[5] = biological target: T3, Cholecystokinin receptor type A (Homo sapiens, UniProt P32238); assay type: cell membranes, Membrane; conditions: 1321-n1; note: in other assays of this panel Not Active means under 50% inhibition at 10 µM
T3 sequence (P32238 whole entry): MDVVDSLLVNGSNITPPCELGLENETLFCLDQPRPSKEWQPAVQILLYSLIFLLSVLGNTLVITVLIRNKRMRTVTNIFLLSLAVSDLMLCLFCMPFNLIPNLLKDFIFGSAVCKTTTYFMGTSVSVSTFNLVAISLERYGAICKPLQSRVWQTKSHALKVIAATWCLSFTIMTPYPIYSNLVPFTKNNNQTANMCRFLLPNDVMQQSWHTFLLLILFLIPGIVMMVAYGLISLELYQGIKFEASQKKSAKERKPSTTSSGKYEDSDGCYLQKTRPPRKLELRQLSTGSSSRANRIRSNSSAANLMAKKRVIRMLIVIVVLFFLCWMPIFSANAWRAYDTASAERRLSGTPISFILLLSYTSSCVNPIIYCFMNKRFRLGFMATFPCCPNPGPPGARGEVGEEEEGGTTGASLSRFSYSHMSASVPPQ

[6] = biological target: Platelet-activating factor receptor (Homo sapiens, UniProt P25105); assay type: tissue-based; note: in other assays of this panel Not Active means under 50% inhibition at 10 µM
Estrogen receptor beta = Estrogen receptor beta (Homo sapiens, UniProt Q92731); conditions: sf9; note: in other assays of this panel Not Active means under 50% inhibition at 10 µM
Estrogen receptor beta, sequence (Q92731 whole entry): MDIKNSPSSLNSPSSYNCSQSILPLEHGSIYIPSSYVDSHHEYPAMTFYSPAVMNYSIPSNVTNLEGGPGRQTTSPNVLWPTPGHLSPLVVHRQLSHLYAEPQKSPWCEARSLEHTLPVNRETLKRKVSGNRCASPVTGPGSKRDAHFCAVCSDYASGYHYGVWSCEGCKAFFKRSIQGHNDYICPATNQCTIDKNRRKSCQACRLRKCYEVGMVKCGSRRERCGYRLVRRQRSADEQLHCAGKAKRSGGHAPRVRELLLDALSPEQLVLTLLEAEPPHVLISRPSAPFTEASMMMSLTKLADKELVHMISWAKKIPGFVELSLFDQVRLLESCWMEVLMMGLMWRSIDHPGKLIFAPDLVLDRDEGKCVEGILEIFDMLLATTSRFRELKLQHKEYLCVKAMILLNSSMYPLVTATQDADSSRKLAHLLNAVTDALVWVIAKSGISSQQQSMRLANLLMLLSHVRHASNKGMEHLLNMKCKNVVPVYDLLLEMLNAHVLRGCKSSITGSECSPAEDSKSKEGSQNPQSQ

5-hydroxytryptamine receptor 6, sequence (P50406 whole entry): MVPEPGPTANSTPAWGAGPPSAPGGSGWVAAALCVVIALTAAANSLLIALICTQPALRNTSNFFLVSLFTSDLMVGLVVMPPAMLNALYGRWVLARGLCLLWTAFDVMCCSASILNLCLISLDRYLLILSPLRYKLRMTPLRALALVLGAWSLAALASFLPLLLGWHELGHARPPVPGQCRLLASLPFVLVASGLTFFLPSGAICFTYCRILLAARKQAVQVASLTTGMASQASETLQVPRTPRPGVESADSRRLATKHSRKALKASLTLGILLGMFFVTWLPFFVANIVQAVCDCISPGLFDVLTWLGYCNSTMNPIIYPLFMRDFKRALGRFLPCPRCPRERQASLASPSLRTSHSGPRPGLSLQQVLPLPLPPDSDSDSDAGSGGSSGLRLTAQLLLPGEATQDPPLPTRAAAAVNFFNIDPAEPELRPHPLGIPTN
Platelet-activating factor receptor, sequence (P25105 whole entry): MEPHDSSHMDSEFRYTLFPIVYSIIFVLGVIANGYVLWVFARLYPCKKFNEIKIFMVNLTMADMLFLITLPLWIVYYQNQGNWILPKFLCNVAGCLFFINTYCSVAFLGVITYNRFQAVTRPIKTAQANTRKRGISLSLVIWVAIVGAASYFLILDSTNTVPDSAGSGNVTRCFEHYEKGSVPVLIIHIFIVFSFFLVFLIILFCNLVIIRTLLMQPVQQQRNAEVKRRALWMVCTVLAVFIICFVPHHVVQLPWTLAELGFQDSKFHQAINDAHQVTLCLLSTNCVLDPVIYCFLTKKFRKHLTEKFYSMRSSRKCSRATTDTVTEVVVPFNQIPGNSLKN

Compound | IC50 ([1]; sf9) | IC50 [2] | IC50 ([3]; hela) | IC50 [4] | IC50 [5] | IC50 [6] | IC50 (Estrogen receptor beta) | IC50 [1] [nM] | Ki ([1]; read-out: Ki) [nM] | IC50 ([3]; read-out: IC50) [nM] | Ki ([3]; read-out: Ki) [nM] | IC50 ([1]; read-out: IC50) [nM] | Ki ([1]; sf9) | Ki [2] | Ki ([3]; hela) | Ki [4] | Ki [5] | Ki [6] | Ki (Estrogen receptor beta)
NC1=NC(=O)C(c2ccccc2)O1 (centres undefined) [PEMOLINE] | Not Active | Not Active | Not Active | Not Active | Not Active | Not Active | Not Active | – | – | – | – | – | – | – | – | – | – | – | –
Nc1nc2c(ncn2CCC(CO)CO)c(=O)[nH]1 [PENCICLOVIR] | Not Active | Not Active | Not Active | Not Active | Not Active | Not Active | Not Active | – | – | – | – | – | – | – | – | – | – | – | –
C=C(C)C1(O)OC(=O)C=C1OC (centres undefined) [PENICILLIC ACID] | Not Active | Not Active | Not Active | Not Active | Not Active | Not Active | Not Active | – | – | – | – | – | – | – | – | – | – | – | –
CC1(C)S[C@@H]2[C@H](NC(=O)Cc3ccccc3)C(=O)N2[C@H]1C(=O)O [PENICILLIN G] | Not Active | Not Active | Not Active | Not Active | Not Active | Not Active | Not Active | – | – | – | – | – | – | – | – | – | – | – | –
CCCN1C[C@H](CSC)C[C@@H]2c3cccc4[nH]cc(c34)C[C@H]21 [PERGOLIDE] | – | Not Active | – | Not Active | Not Active | Not Active | Not Active | 1410 | 205 | 39 | 18 | – | – | – | – | – | – | – | –
C1CCC(C(CC2CCCCN2)C2CCCCC2)CC1 (centres undefined) [PERHEXILINE] | Not Active | Not Active | Not Active | Not Active | Not Active | Not Active | Not Active | – | – | – | – | – | – | – | – | – | – | – | –
CCOc1ccc(NC(C)=O)cc1 [PHENACETIN] | Not Active | Not Active | Not Active | Not Active | Not Active | Not Active | Not Active | – | – | – | – | – | – | – | – | – | – | – | –
CNNCc1ccc(C(=O)NC(C)C)cc1 [PROCARBAZINE] | Not Active | Not Active | Not Active | Not Active | Not Active | Not Active | Not Active | – | – | – | – | – | – | – | – | – | – | – | –
CN(C)CCCN1c2ccccc2Sc2ccccc21 [PROMAZINE] | – | Not Active | – | Not Active | Not Active | Not Active | Not Active | – | 37 | 274 | 127 | 253 | – | – | – | – | – | – | –
CADMIUM ACETATE | Not Active | Not Active | Not Active | Not Active | Not Active | Not Active | Not Active | – | – | – | – | – | Not Active | Not Active | Not Active | Not Active | Not Active | Not Active | Not Active
LEAD (II) ACETATE | Not Active | Not Active | Not Active | Not Active | Not Active | Not Active | Not Active | – | – | – | – | – | Not Active | Not Active | Not Active | Not Active | Not Active | Not Active | Not Active
LIPOPOLYSACCHARIDE E. COLI O55:B5 | Not Active | Not Active | Not Active | Not Active | Not Active | Not Active | Not Active | – | – | – | – | – | Not Active | Not Active | Not Active | Not Active | Not Active | Not Active | Not Active

From ChEMBL document CHEMBL1909046, “DrugMatrix in vitro pharmacology data”
